Drawing on patent US20100184767A1, “SUBSTITUTED OXAZOLIDINONES AND USE THEREOF” (priority 2007, published 2010), this text covers IC50 for four molecules.

Broadly, the IC50 is the concentration needed to halve the response being measured.

This experiment has as its target human factor Xa (FXa) (Homo sapiens, UniProt P00742). The experiment can be described thus: Factor Xa inhibition, fluorogenic assay. The format is biochemical. Particulars: fluorogenic substrate Boc-Ile-Glu-Gly-Arg-AMC, human FXa 1.3 nmol/l, pH 7.4, 22° C. The procedure:
The enzymatic activity of human factor Xa (FXa) is measured using the conversion of a fluorogenic substrate specific for FXa. FXa cleaves aminomethylcoumarin, whose fluorescence is measured, from the peptidic substrate. The determinations are carried out in microtitre plates.
Substances to be tested, in various concentrations, are dissolved in dimethyl sulphoxide and incubated for 15 min at 22° C. with human FXa (1.3 nmol/l dissolved in 50 mmol/l of Tris buffer [C,C,C-tris(hydroxymethyl)aminomethane], 100 mmol/l NaCl, 0.1% BSA [bovine serum albumin], pH 7.4). The fluorogenic substrate (5 μmol/l of Boc-Ile-Glu-Gly-Arg-AMC from Bachem) is then added. After an incubation time of 30 min, the sample is excited at a wavelength of 360 nm, and the emission at 460 nm is measured. The measured emissions of the test batches with test substance are compared to the control batches without test substance (only dimethyl sulphoxide instead of test substance in dimethyl sulphoxide), and IC50 values are calculated from the concentration/activity relationships.

Sequence of human factor Xa (FXa) (P00742 235-488 limits assumed): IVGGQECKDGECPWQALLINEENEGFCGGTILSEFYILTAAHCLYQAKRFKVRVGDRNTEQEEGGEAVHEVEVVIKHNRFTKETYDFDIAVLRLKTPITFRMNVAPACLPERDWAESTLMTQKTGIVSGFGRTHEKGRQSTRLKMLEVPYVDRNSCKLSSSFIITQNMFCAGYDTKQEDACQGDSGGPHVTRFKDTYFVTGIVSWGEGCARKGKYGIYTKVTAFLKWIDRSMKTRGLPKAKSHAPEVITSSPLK
Sequence of human factor Xa (FXa) (P00742 41-179 partner limits assumed): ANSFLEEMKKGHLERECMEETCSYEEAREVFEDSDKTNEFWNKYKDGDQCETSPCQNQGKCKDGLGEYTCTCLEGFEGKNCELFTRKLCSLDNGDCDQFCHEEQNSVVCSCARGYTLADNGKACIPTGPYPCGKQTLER

`O=C(NC[C@H]1CN(c2ccc(N3CCOCC3=O)cc2F)C(=O)O1)c1ccc(Cl)s1` [Example 1, 5-Chloro-N-({(5S)-3-[2-fluoro-4-(3-oxomorpholin-4-yl)phenyl]-2-oxo-1,3-oxazolidin-5-yl}methyl)thiophene-2-carboxamide] displayed an IC50 of 0.9 nM. Molecule `O=C(NC[C@H]1CN(c2ccc(N3CCCCC3=O)cc2F)C(=O)O1)c1ccc(Cl)s1` [Example 11, 5-Chloro-N-({(5S)-3-[2-fluoro-4-(2-oxopiperidin-1-yl)phenyl]-2-oxo-1,3-oxazolidin-5-yl}methyl)thiophene-2-carboxamide] had an IC50 of 2.2 nM. For `O=C(NC[C@H]1CN(c2ccc(N3CCOCC3=O)cc2Cl)C(=O)O1)c1ccc(Cl)s1` [Example 12, 5-Chloro-N-({(5S)-3-[2-chloro-4-(3-oxomorpholin-4-yl)phenyl]-2-oxo-1,3-oxazolidin-5-yl}methyl)thiophene-2-carboxamide], the IC50 came out at 1.8 nM. On to `O=C(NC[C@H]1CN(c2ccc(-n3cccc(CO)c3=O)cc2F)C(=O)O1)c1ccc(Cl)s1` [Example 22, 5-Chloro-N-{[(5S)-3-{2-fluoro-4-[3-(hydroxymethyl)-2-oxopyridin-1(2H)-yl]phenyl}-2-oxo-1,3-oxazolidin-5-yl]methyl}thiophene-2-carboxamide], for which the IC50 is 0.9 nM.
